Test results: patent publication US20220096507A1, “Parenteral Pharmaceutical Composition Comprising Azacitidine or Decitabine in DMSO” (Sandoz AG, priority 2020, published 2022)
Like-named read-outs stand apart in the source and are kept apart here.

Experiments:
[1] = 250 mg/mL in DMSO, relative to week 0
Method: A 250 mg/mL solution of azacitidine (TEVA Sicor) in DMSO (Merck; Ph. Eur. grade quality) with a water content of less than 0.1 wt.-% was prepared and filled into (moisture proof) vials, which were subsequently sealed using rubber stoppers. […] The amount of azacitidine was analyzed using high performance liquid chromatography (HPLC) and comparing the integral of the azacitidine peak with the integral of a freshly prepared standard solution containing a predetermined amount of azacitidine.
HPLC measurements were carried out using an Agilent 1200 system (or equivalent). For detection, a UV detector (235 nm) was used. A YMC Hydrosphere C18 (250 mm*4.6 mm*[…]) column and a flow rate of 1.0 mL/min and a gradient of aq. pH 7 buffer solution (containing disodium hydrogen phosphate, orthophosphoric acid and ammonium formate)/acetonitrile from 100:0 to 40:60 were employed.

[2] = bulk (non-pharmaceutical grade) substance, purity above 95%, Cayman leaflet; cited from earlier work
[3] = at 25° C. in water; cited from earlier work

Row | % of azacitidine at 25° C. ([1]; water <0.1 wt.-%, day 0) | % of azacitidine at 40° C. ([1]; water <0.1 wt.-%, day 0) | % of azacitidine at 25° C. ([1]; day 7) | % of azacitidine at 40° C. ([1]; day 7) | % of azacitidine at 25° C. ([1]; day 14) | % of azacitidine at 40° C. ([1]; day 14) | % of azacitidine at 25° C. ([1]; day 21) | % of azacitidine at 40° C. ([1]; day 21) | % of azacitidine at 25° C. ([1]; day 28) | % of azacitidine at 40° C. ([1]; day 28) | % of azacitidine at 25° C. ([1]; day 56) | % of azacitidine at 40° C. ([1]; day 56) | % of azacitidine at 25° C. ([1]; day 98) | % of azacitidine at 40° C. ([1]; day 98) | % of azacitidine at 25° C. ([1]; day 182) | % of azacitidine at 40° C. ([1]; day 182) | Structure (SMILES) | solubility in bulk DMSO [2] | solubility of azacitidine in water [3]
1 | 100% | 100% | 100% | 100% | 100% | 100% | 100% | 100% | 100% | 100% | 100% | 99% | 100% | 96% | 100% | 94% | Nc1ncn([C@@H]2O[C@H](CO)[C@@H](O)[C@H]2O)c(=O)n1 [azacitidine, 5-azacytidine] | approximately 30 mg/mL | 13.4 mg/mL
2 | – | – | – | – | – | – | – | – | – | – | – | – | – | – | – | – | Nc1ncn([C@H]2C[C@H](O)[C@@H](CO)O2)c(=O)n1 [decitabine, 5-aza-2′-deoxycytidine] | approximately 30 mg/mL | –
